Test results taken from ChEMBL document CHEMBL1201862, “PubChem BioAssay data set” (2004).
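All cell lines were grown in 96-well plates and treated with compound for 48 hours. The concentration for 50% growth inhibition is given as GI50.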 Activity calls are given as the source filed them. Rule as the data show it: active = GI50 up to about 1.1 µM and inactive = higher.

Columns and labels:
Experiment in all cases: inhibition of tumour cell growth, NCI panel, 48 h
786-0 = test system: 786-0
CAKI-1 = test system: CAKI-1
HOP-62 = test system: HOP-62
KM12 = test system: KM12
M14 = test system: M14
MDA-MB-435 = test system: MDA-MB-435
MDA-N = test system: MDA-N
NCI-H460 = test system: NCI-H460
OVCAR-8 = test system: OVCAR-8
SF-268 = test system: SF-268
SF-295 = test system: SF-295
SF-539 = test system: SF-539
SK-MEL-28 = test system: SK-MEL-28
SK-MEL-5 = test system: SK-MEL-5
SNB-19 = test system: SNB-19
SNB-75 = test system: SNB-75
SW-620 = test system: SW-620
TK-10 = test system: TK-10
HCC 2998 = test system: HCC 2998
Hs-578T = test system: Hs-578T

SMILES | GI50 (786-0) | GI50 (CAKI-1) | GI50 (HOP-62) | GI50 (KM12) | GI50 (M14) | GI50 (MDA-MB-435) | GI50 (MDA-N) | GI50 (NCI-H460) | GI50 (OVCAR-8) | GI50 (SF-268) | GI50 (SF-295) | GI50 (SF-539) | GI50 (SK-MEL-28) | GI50 (SK-MEL-5) | GI50 (SNB-19) | GI50 (SNB-75) | GI50 (SW-620) | GI50 (TK-10) | GI50 (HCC 2998) | GI50 (Hs-578T)
CCOn1c(C2(CC3CCN(C(=O)c4ccccc4)CC3)OCCO2)cc2ccccc21 | 16.5 µM (inactive) | 15.4 µM (inactive) | 15.1 µM (inactive) | 15.8 µM (inactive) | 16.7 µM (inactive) | 14.3 µM (inactive) | 16.5 µM (inactive) | 14.1 µM (inactive) | 14.3 µM (inactive) | 19.3 µM (inactive) | 15.8 µM (inactive) | 18.7 µM (inactive) | 13.2 µM (inactive) | 11.9 µM (inactive) | 16.7 µM (inactive) | 16.5 µM (inactive) | 15.8 µM (inactive) | 12.2 µM (inactive) | – | –
O=c1c2ccc(Cl)cc2oc2c(CNc3ccc(S(=O)(=O)Nc4ncccn4)cc3)cccc12 | > 100 µM (inactive) | > 100 µM (inactive) | 90.8 µM (inactive) | > 100 µM (inactive) | > 100 µM (inactive) | > 100 µM (inactive) | > 100 µM (inactive) | – | > 100 µM (inactive) | – | > 100 µM (inactive) | 94.4 µM (inactive) | > 100 µM (inactive) | > 100 µM (inactive) | > 100 µM (inactive) | > 100 µM (inactive) | > 100 µM (inactive) | > 100 µM (inactive) | > 100 µM (inactive) | –
O=S(=O)(O)c1ccc(-c2nnc(-c3ccccn3)nc2-c2ccc(S(=O)(=O)O)o2)o1 | > 100 µM (inactive) | > 100 µM (inactive) | > 100 µM (inactive) | > 100 µM (inactive) | > 100 µM (inactive) | > 100 µM (inactive) | > 100 µM (inactive) | > 100 µM (inactive) | > 100 µM (inactive) | > 100 µM (inactive) | > 100 µM (inactive) | > 100 µM (inactive) | > 100 µM (inactive) | > 100 µM (inactive) | > 100 µM (inactive) | > 100 µM (inactive) | > 100 µM (inactive) | – | – | > 100 µM (inactive)
CC(C)CC1c2[nH]c3ccccc3c2C[C@H]2C(=O)NC(CCCCNC(=O)OC(C)(C)C)C(=O)N12 (stereo partly drawn) | 20.9 µM (inactive) | 37.3 µM (inactive) | 56.2 µM (inactive) | 17 µM (inactive) | 35.3 µM (inactive) | 33 µM (inactive) | 37.5 µM (inactive) | – | 34.2 µM (inactive) | 21.4 µM (inactive) | 12.3 µM (inactive) | – | 65.6 µM (inactive) | 33.2 µM (inactive) | 47.1 µM (inactive) | – | 41 µM (inactive) | 31.3 µM (inactive) | – | 2.7 µM (inactive)
c1cc2c(cc1[C@@H]1OC[C@@H]3[C@H]1CO[C@H]3c1ccc3c(c1)OCO3)OCO2 | > 100 µM (inactive) | 30.1 µM (inactive) | > 100 µM (inactive) | 23.1 µM (inactive) | 62.8 µM (inactive) | 54.2 µM (inactive) | 80.9 µM (inactive) | > 100 µM (inactive) | > 100 µM (inactive) | > 100 µM (inactive) | > 100 µM (inactive) | > 100 µM (inactive) | > 100 µM (inactive) | 16 µM (inactive) | > 100 µM (inactive) | > 100 µM (inactive) | 58.3 µM (inactive) | 30.3 µM (inactive) | > 100 µM (inactive) | –
Clc1ccccc1-c1nnc2c(-c3ccccc3)nc3ccccc3n12 | 40.9 µM (inactive) | – | 69.3 µM (inactive) | > 100 µM (inactive) | > 100 µM (inactive) | 52.7 µM (inactive) | 96.6 µM (inactive) | > 100 µM (inactive) | – | > 100 µM (inactive) | – | > 100 µM (inactive) | > 100 µM (inactive) | > 100 µM (inactive) | > 100 µM (inactive) | – | > 100 µM (inactive) | > 100 µM (inactive) | > 100 µM (inactive) | –
CN(Cc1cnc2nc(N)nc(N)c2n1)c1ccc(C(=O)NC2CCCCC2)cc1 | 11.6 µM (inactive) | 63.7 µM (inactive) | 34.5 µM (inactive) | 26.9 µM (inactive) | 10.6 µM (inactive) | – | 7.69 µM (inactive) | 20.1 µM (inactive) | 14.2 µM (inactive) | 19 µM (inactive) | 32.4 µM (inactive) | 13.6 µM (inactive) | – | 12.3 µM (inactive) | 14.9 µM (inactive) | 25.2 µM (inactive) | 11.1 µM (inactive) | 51.3 µM (inactive) | – | 23.6 µM (inactive)
CC(C)[C@]12O[C@H]1[C@@H]1O[C@@]13[C@@]1(C)CCC4=C(COC4=O)[C@@H]1C[C@@H]1O[C@@]13C2=O [TRIPTONIDE] | 0.0248 µM (active) | – | < 0.01 µM (active) | 0.824 µM (active) | 0.0173 µM (active) | 0.0103 µM (active) | < 0.0113 µM (active) | < 0.01 µM (active) | 0.0339 µM (active) | 0.0229 µM (active) | 0.0771 µM (active) | 0.0171 µM (active) | 0.0126 µM (active) | 0.0141 µM (active) | – | 0.0108 µM (active) | – | 0.0261 µM (active) | 0.029 µM (active) | < 0.0158 µM (active)
CSc1nc(-c2cc3c(c(SC)n2)CCC3)cc2c1CCC2 | > 100 µM (inactive) | > 100 µM (inactive) | > 100 µM (inactive) | > 100 µM (inactive) | > 100 µM (inactive) | > 100 µM (inactive) | > 100 µM (inactive) | > 100 µM (inactive) | > 100 µM (inactive) | > 100 µM (inactive) | > 100 µM (inactive) | > 100 µM (inactive) | > 100 µM (inactive) | > 100 µM (inactive) | > 100 µM (inactive) | > 100 µM (inactive) | > 100 µM (inactive) | > 100 µM (inactive) | > 100 µM (inactive) | –
Cc1cc(S(=O)(=O)N/C(=C(\C#N)C(=O)c2ccc(Cl)cc2)[n+]2ccc(N(C)C)cc2)c([S-])cc1Cl | > 100 µM (inactive) | > 100 µM (inactive) | 38.1 µM (inactive) | > 100 µM (inactive) | 41.9 µM (inactive) | > 100 µM (inactive) | > 100 µM (inactive) | 42.6 µM (inactive) | > 100 µM (inactive) | 76.6 µM (inactive) | 62.2 µM (inactive) | 67.3 µM (inactive) | > 100 µM (inactive) | > 100 µM (inactive) | – | – | – | 43.2 µM (inactive) | 83 µM (inactive) | –
Cc1[nH]c2ccccc2c1/C=N/c1ccc(Oc2ccccc2)cc1 | 16.3 µM (inactive) | 15.9 µM (inactive) | – | 16.2 µM (inactive) | 16.6 µM (inactive) | 17.2 µM (inactive) | 17.2 µM (inactive) | 20.4 µM (inactive) | 18.3 µM (inactive) | 14.6 µM (inactive) | 14 µM (inactive) | 18.1 µM (inactive) | 18.8 µM (inactive) | 15.2 µM (inactive) | 18 µM (inactive) | 13 µM (inactive) | 18 µM (inactive) | 16.4 µM (inactive) | – | 22.6 µM (inactive)
COc1cccc(/N=N/N2CCCC2)c1 | > 100 µM (inactive) | > 100 µM (inactive) | > 100 µM (inactive) | 9.46 µM (inactive) | > 100 µM (inactive) | 59.2 µM (inactive) | 41.4 µM (inactive) | > 100 µM (inactive) | > 100 µM (inactive) | > 100 µM (inactive) | 26.5 µM (inactive) | > 100 µM (inactive) | – | > 100 µM (inactive) | > 100 µM (inactive) | > 100 µM (inactive) | > 100 µM (inactive) | > 100 µM (inactive) | – | > 100 µM (inactive)
CCNC(=S)Nc1c(C#N)c2n(c1C(=O)OCC)CCCCC2 | 76.4 µM (inactive) | > 100 µM (inactive) | 35.2 µM (inactive) | > 100 µM (inactive) | > 100 µM (inactive) | > 100 µM (inactive) | – | > 100 µM (inactive) | > 100 µM (inactive) | 62.7 µM (inactive) | > 100 µM (inactive) | 64.7 µM (inactive) | > 100 µM (inactive) | > 100 µM (inactive) | > 100 µM (inactive) | > 100 µM (inactive) | > 100 µM (inactive) | > 100 µM (inactive) | > 100 µM (inactive) | 35.3 µM (inactive)
CC(=O)OC1(C)N=NC2(CCCCC2)O1 (stereo not drawn) | > 100 µM (inactive) | > 100 µM (inactive) | > 100 µM (inactive) | > 100 µM (inactive) | > 100 µM (inactive) | > 100 µM (inactive) | > 100 µM (inactive) | > 100 µM (inactive) | > 100 µM (inactive) | > 100 µM (inactive) | > 100 µM (inactive) | > 100 µM (inactive) | > 100 µM (inactive) | > 100 µM (inactive) | > 100 µM (inactive) | > 100 µM (inactive) | > 100 µM (inactive) | > 100 µM (inactive) | – | > 100 µM (inactive)
CC(=O)/C(=C\I)c1ccccc1 | 2.12 µM (inactive) | – | 23.1 µM (inactive) | 3.57 µM (inactive) | 2.31 µM (inactive) | 3.86 µM (inactive) | 1.62 µM (inactive) | 11.2 µM (inactive) | 1.82 µM (inactive) | 7.91 µM (inactive) | 19.1 µM (inactive) | 18 µM (inactive) | 3.18 µM (inactive) | – | 12.1 µM (inactive) | 3.94 µM (inactive) | 1.3 µM (inactive) | 13.9 µM (inactive) | – | 3.44 µM (inactive)
